According to US20230304996A1, “MICROFLUIDIC SYSTEM TO CONTROL PERFUSION, DIFFUSION AND COLLECTION OF MOLECULES OVER LONG PERIODS IN AN EX-VIVO SKIN MODEL” (GENOSKIN, priority 2020, published 2023):

Assay: Diffusion of infused low molecular weight contrast agents in NativeSkin and FlowSkin models (surface colour intensity)
Assay type: in vitro ADME
Settings: infused at 0.5 mg/mL, first hours of infusion; FLOWSKIN (with hypodermis) compared with NATIVESKIN (without)
Description: In order to characterize diffusion during the first hours of infusion in the NativeSkin° and in the FlowSkin®model, two low molecular weight contrast agents (KI: potassium Iodide, […]) and V patent blur (E131, 1 kDa) at 0.5 mg/mL have been infused in both models.
The result was similar with V patent blue (E131). Accordingly, it seems that the hypoderm facilitate the diffusion of low molecular weight agent within the FLOWSKIN® model.

color intensity visible at the surface of the FLOWSKIN model versus the NATIVESKIN model: growing faster
SMILES: [I-].[K+] [KI, potassium Iodide]
